According to patent US20080255192A1, “Methods and Compositions for Selectin Inhibition” (Wyeth, priority 2007, published 2008):

What follows are compounds tested against T1, P-selectin/PSGL-1 interaction (Homo sapiens, UniProt P16109) (assay: Biacore P-Selectin/PSGL-1 Inhibition Assay (surface plasmon resonance)). Conditions: 250 uM test compound, 500 nM P.LE, immobilized PSGL-1 19ek, 10% DMSO, pH 7.4.
T1 construct: comprised of the lectin and epidermal growth factor-like (EGF) domains expressed in CHO cells; made in house; host or cells: CHO cells (P-LE)
T1 sequence (P16109 42-198): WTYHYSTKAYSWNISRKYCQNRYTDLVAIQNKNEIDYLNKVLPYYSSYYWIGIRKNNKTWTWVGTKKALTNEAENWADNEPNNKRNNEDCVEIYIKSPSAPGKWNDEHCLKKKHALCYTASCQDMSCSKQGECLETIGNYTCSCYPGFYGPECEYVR
Format: binding
Method: Surface plasmon resonance assays were performed on a Biacore 3000 instrument (Biacore Inc. Piscataway, N.J.) at 25° C. at a flow rate of 30 μL/minute and each assay consisted of a 60-second equilibration, a 60-μL sample injection (kinject), and a 300-second dissociation.
A purified, monomeric, truncated form of human PSGL-1, “19ek”, that contained all the necessary P-selectin binding determinants (see Goetz, et al., J. Cell Biol., 1997, 137: 509-519; and Sako, et al., Cell, 1995, 83: 323-331) was biotinylated via amine chemistry (Sulfo-NHS-LC-Biotin, Peirce) at a unique C-terminal lysine residue (see Somers, et al., Cell, 2000, 103: 467-479) and immobilized on a Biacore SA sensor chip (Biacore Inc.), using an HBS-EP buffer (Biacore Inc.), and the target 600-700 RU. The coated chip was re-equilibrated with an HBS-P buffer (Biacore Inc.) to which 1 mM CaCl2 and 1 mM MgCl2 (both from Fisher) were added to ensure sufficient calcium for the calcium-dependent interaction between the receptor and the ligand.
Test compounds were incubated for 1 hour in a 1.1× Biacore assay buffer. Each solution was centrifuged through a 0.2 µm filter, using a 96-well plate format (Millipore). Glycyrrhizin tri-sodium salt (TCI) was prepared as a positive control in parallel with the test compounds, in the same manner described above.
A soluble recombinant truncated form of human P-selectin, P-LE, comprised of the lectin and epidermal growth factor-like (EGF) domains expressed in CHO cells (see Somers, et al., Cell, 2000, 103: 467-479) was added to each filtered test compound solution. Final concentrations of reagents were 500 nM P.LE, 250 or 500 μM test compound (depending on structure) or 1 mM glycyrrhizin, 10% DMSO, and 1× Biacore buffer ([…], 150 mM NaCl, 1 mM CaCl2, and 1 mM MgCl2 (all reagents from Fisher)), with a pH of 7.4. Compounds active at 250 μM were titrated to further define activity. Test samples were supplied to the Biacore instrument in a 96-well plate.
The Biacore raw data file was exported as a text file to an Excel spreadsheet, where the buffer blanks bracketing the samples were averaged for each Biacore instrument flow cell (Fc), and subtracted from the averaged uninhibited P.LE samples and from all the other samples. The reference signal from Fcl (uncoated) was then subtracted from its corresponding active (coated) signal for each injection, a process known as double referencing (see Myszka, J. Mol. Recognit., 1999, 12(5): 279-284). The percent inhibition of binding was calculated by dividing the reference-subtracted inhibited signal by the reference-subtracted uninhibited signal, subtracting this value from 1, and multiplying the resulting value by 100. The replicate percent inhibition values were averaged and expressed as the mean ±standard deviation. The inter-experiment standard deviation of calculated percent inhibitions in the Biacore assay was ±5.

Point of comparison: `CC(C)(c1ccccc1)c1nc2c3c(ccc2c(C(=O)O)c1O)CCCC3` [Compound 114, 3-hydroxy-2-(2-phenylpropan-2-yl)-7,8,9,10-tetrahydrobenzo[h]quinoline-4-carboxylic acid], inhibition at 250 µM 69%. Against it:
- Cc1ccc2c(C(=O)O)c(O)c(C3(c4ccc(Cl)cc4)CC3)nc2c1 [Compound 13, 2-(1-(4-chlorophenyl)cyclopropyl)-3-hydroxy-7-methylquinoline-4-carboxylic acid] — lower, ≤ 10%
- CC(C)c1cccc2c(C(=O)O)c(O)c(C3(c4ccc(C(F)(F)F)cc4)CC3)nc12 [Compound 88, 3-hydroxy-8-isopropyl-2-(1-(4-(trifluoromethyl)phenyl)cyclopropyl)quinoline-4-carboxylic acid] — lower, 34%
- O=C(O)c1c(O)c(CC2(c3ccccc3)CC2)nc2c(C(F)(F)F)cccc12 [Compound 111, 3-hydroxy-2-(1-phenyl-cyclopropylmethyl)-8-trifluoromethyl-quinoline-4-carboxylic acid] — lower, 46%
- O=C(O)c1c(O)c(C2(c3ccccc3C(F)(F)F)CC2)nc2c(C(F)(F)F)cccc12 [Compound 63, 3-hydroxy-8-(trifluoromethyl)-2-(1-(2-(trifluoromethyl)phenyl)cyclopropyl)quinoline-4-carboxylic acid] — lower, 17%
- O=C(O)c1c(O)c(C2(c3ccccc3)CC2)nc2cc(Cl)ccc12 [Compound 26, 7-chloro-3-hydroxy-2-(1-Phenylcyclopropyl)quinoline-4-carboxylic acid] — lower, ≤ 10%
- CCc1cccc2c(C(=O)O)c(O)c(C3(c4ccc(Cl)cc4)CC3)nc12 [Compound 2, 2-(1-(4-chlorophenyl)cyclopropyl)-8-ethyl-3-hydroxyquinoline-4-carboxylic acid] — lower, 67%
- Cc1ccc2c(C(=O)O)c(O)c(C3(c4ccc(Cl)cc4)CC3)nc2c1C [Compound 40, 2-(1-(4-chlorophenyl)cyclopropyl)-3-hydroxy-7,8-dimethylquinoline-4-carboxylic acid] — lower, 53%
- COc1ccc2nc(C3(c4ccc(F)cc4)CC3)c(O)c(C(=O)O)c2c1 [Compound 79, 2-(1-(4-fluorophenyl)cyclopropyl)-3-hydroxy-6-methoxyquinoline-4-carboxylic acid] — lower, ≤ 10%
- Cc1ccc(C2(c3nc4c(C)cc(C)cc4c(C(=O)O)c3O)CC2)cc1 [Compound 84, 3-hydroxy-6,8-dimethyl-2-(1-p-tolylcyclopropyl)quinoline-4-carboxylic acid] — lower, 11%
- O=C(O)c1c(O)c(C2(c3ccc(Cl)cc3)CC2)nc2ccc(Cl)cc12 [Compound 22, 6-chloro-2-(1-(4-chlorophenyl)cyclopropyl)-3-hydroxyquinoline-4-carboxylic acid] — lower, 26%
- CC(c1ccccc1)c1nc2c3c(ccc2c(C(=O)O)c1O)CCCC3 (stereo not shown) [Compound 125, 3-Hydroxy-2-(1-phenylethyl)-7,8,9,10-tetrahydrobenzo[h]quinoline-4-carboxylic acid] — higher, 90%
- Cc1cc(C)c2nc(C3(c4ccc(F)cc4)CC3)c(O)c(C(=O)O)c2c1 [Compound 69, 2-(1-(4-fluorophenyl)cyclopropyl)-3-hydroxy-6,8-dimethylquinoline-4-carboxylic acid] — lower, 11%
- CC(c1ccc(Cl)cc1)c1nc2c3c(ccc2c(C(=O)O)c1O)CCCC3 (stereo not shown) [Compound 124, 2-(1-(4-chlorophenyl)ethyl)-3-hydroxy-7,8,9,10-tetrahydrobenzo[h]quinoline-4-carboxylic acid] — lower, ≤ 10%
- O=C(O)c1c(O)c(C2(c3ccccc3)CC2)nc2c(-c3ccccc3)cccc12 [Compound 45, 3-hydroxy-8-phenyl-2-(1-Phenylcyclopropyl)quinoline-4-carboxylic acid] — lower, 37%
- CCC(c1ccccc1)c1nc2c(C)c(C)ccc2c(C(=O)O)c1O (stereo not shown) [Compound 128, 3-Hydroxy-7,8-dimethyl-2-(1-phenylpropyl)quinoline-4-carboxylic acid] — lower, 64%
- CCc1cccc2c(C(=O)O)c(O)c(C3(c4ccc(F)cc4)CC3)nc12 [Compound 65, 8-ethyl-2-(1-(4-fluorophenyl)cyclopropyl)-3-hydroxyquinoline-4-carboxylic acid] — lower, 31%
- CCc1ccc2c(C(=O)O)c(O)c(C3(c4ccccc4)CC3)nc2c1 [Compound 28, 7-ethyl-3-hydroxy-2-(1-phenylcyclopropyl)quinoline-4-carboxylic acid] — lower, ≤ 10%
- Cc1ccc2nc(C3(c4ccc(Cl)cc4)CC3)c(O)c(C(=O)O)c2c1 [Compound 19, 2-(1-(4-chlorophenyl)cyclopropyl)-3-hydroxy-6-methylquinoline-4-carboxylic acid] — lower, ≤ 10%
- Cc1cccc2c(C(=O)O)c(O)c(C3(c4ccc(F)cc4)CC3)nc12 [Compound 78, 2-(1-(4-fluorophenyl)cyclopropyl)-3-hydroxy-8-methylquinoline-4-carboxylic acid] — lower, 10%
- O=C(O)c1c(O)c(C2(c3ccccc3Cl)CC2)nc2c(C(F)(F)F)cccc12 [Compound 55, 2-(1-(2-chlorophenyl)cyclopropyl)-3-hydroxy-8-(trifluoromethyl)quinoline-4-carboxylic acid] — lower, 57%
- O=C(O)c1c(O)c(C2(c3ccc(C(F)(F)F)cc3)CC2)nc2c(-c3ccccc3)cccc12 [Compound 92, 3-hydroxy-8-phenyl-2-(1-(4-(trifluoromethyl)phenyl)cyclopropyl)quinoline-4-carboxylic acid] — lower, ≤ 10%
- O=C(O)c1c(O)c(C2(c3ccc(F)cc3)CC2)nc2c3c(ccc12)CCCC3 [Compound 80, 2-(1-(4-fluorophenyl)cyclopropyl)-3-hydroxy-7,8,9,10-tetrahydrobenzo[h]quinoline-4-carboxylic acid] — lower, 59%
- CCc1ccc2nc(C3(c4ccccc4)CC3)c(O)c(C(=O)O)c2c1 [Compound 27, 6-ethyl-3-hydroxy-2-(1-phenylcyclopropyl)quinoline-4-carboxylic acid] — lower, ≤ 10%
- CC(C)(c1ccccc1)c1nc2c(C(F)(F)F)cccc2c(C(=O)O)c1O [Compound 117, 3-hydroxy-2-(2-phenylpropan-2-yl)-8-(trifluoromethyl)quinoline-4-carboxylic acid] — lower, 55%
- CC(C)c1cccc2c(C(=O)O)c(O)c(C3(c4ccc(Cl)cc4)CC3)nc12 [Compound 39, 2-(1-(4-chlorophenyl)cyclopropyl)-3-hydroxy-8-isopropylquinoline-4-carboxylic acid] — lower, 66%
- O=C(O)c1c(O)c(C2(c3ccc(Cl)cc3)CC2)nc2c(-c3ccccc3)cccc12 [Compound 6, 2-(1-(4-chlorophenyl)cyclopropyl)-3-hydroxy-8-phenylquinoline-4-carboxylic acid] — higher, 98%
- O=C(O)c1c(O)c(C2(c3ccc(Cl)cc3)CC2)nc2c(Br)cccc12 [Compound 9, 8-bromo-2-(1-(4-chlorophenyl)cyclopropyl)-3-hydroxyquinoline-4-carboxylic acid] — lower, 46%
- COc1ccc2nc(C3(c4ccc(Cl)cc4)CC3)c(O)c(C(=O)O)c2c1 [Compound 20, 2-(1-(4-chlorophenyl)cyclopropyl)-3-hydroxy-6-methoxyquinoline-4-carboxylic acid] — lower, ≤ 10%
- CCc1ccc2nc(C3(c4ccc(F)cc4)CC3)c(O)c(C(=O)O)c2c1 [Compound 70, 6-ethyl-2-(1-(4-fluorophenyl)cyclopropyl)-3-hydroxyquinoline-4-carboxylic acid] — lower, 10%
- CC(c1ccccc1)c1nc2c(C(F)(F)F)cccc2c(C(=O)O)c1O (stereo not shown) [Compound 123, 3-hydroxy-2-(1-phenylethyl)-8-(trifluoromethyl)quinoline-4-carboxylic acid] — lower, 49%
